# Active and inactive are the calls of the source.
# Experiments:
# [1] = biological target: 5-hydroxytryptamine receptor 2A (Mus musculus, UniProt P35363); type: functional, cell-based;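 further: CHO-K1 cells with tagged receptor and beta-arrestin; agonist potency measured as compound-induced activation of the receptor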
# Mu-type opioid receptor = Mu-type opioid receptor (Homo sapiens, UniProt P35372); type: functional, cell-based;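 further: U2OS cells with beta-arrestin recruitment to OPRM1 by beta-gal complementation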
# Sequence of Mu-type opioid receptor (P35372 whole entry): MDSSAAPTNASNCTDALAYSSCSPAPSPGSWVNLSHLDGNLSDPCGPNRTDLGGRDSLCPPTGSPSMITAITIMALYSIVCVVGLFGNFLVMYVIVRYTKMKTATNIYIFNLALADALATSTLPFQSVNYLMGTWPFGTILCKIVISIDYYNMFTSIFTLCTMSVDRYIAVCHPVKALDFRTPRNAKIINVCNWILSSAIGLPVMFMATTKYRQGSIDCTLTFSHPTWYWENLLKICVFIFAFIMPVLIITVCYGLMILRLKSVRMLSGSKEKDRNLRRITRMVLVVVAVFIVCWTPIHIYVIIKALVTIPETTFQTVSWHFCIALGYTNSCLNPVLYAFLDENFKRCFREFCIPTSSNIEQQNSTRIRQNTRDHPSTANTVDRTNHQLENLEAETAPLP
# [2] = biological target: T1, Low molecular weight phosphotyrosine protein phosphatase (Homo sapiens, UniProt P24666); type: functional; details: read-out: IC50_Mean
# T1 sequence (P24666 whole entry): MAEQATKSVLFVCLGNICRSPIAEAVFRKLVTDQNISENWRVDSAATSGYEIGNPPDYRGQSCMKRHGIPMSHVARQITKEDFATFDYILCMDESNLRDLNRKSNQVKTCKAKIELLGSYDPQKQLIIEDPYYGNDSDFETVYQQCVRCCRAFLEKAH
# [3] = biological target: DNA (cytosine-5)-methyltransferase 1 (Homo sapiens, UniProt P26358); assay: DNMT1 methyltransferase inhibitors, confirmation, biochemical, fluorescent molecular beacon (AID 602386); type: functional
# Sequence of DNA (cytosine-5)-methyltransferase 1 (P26358 whole entry): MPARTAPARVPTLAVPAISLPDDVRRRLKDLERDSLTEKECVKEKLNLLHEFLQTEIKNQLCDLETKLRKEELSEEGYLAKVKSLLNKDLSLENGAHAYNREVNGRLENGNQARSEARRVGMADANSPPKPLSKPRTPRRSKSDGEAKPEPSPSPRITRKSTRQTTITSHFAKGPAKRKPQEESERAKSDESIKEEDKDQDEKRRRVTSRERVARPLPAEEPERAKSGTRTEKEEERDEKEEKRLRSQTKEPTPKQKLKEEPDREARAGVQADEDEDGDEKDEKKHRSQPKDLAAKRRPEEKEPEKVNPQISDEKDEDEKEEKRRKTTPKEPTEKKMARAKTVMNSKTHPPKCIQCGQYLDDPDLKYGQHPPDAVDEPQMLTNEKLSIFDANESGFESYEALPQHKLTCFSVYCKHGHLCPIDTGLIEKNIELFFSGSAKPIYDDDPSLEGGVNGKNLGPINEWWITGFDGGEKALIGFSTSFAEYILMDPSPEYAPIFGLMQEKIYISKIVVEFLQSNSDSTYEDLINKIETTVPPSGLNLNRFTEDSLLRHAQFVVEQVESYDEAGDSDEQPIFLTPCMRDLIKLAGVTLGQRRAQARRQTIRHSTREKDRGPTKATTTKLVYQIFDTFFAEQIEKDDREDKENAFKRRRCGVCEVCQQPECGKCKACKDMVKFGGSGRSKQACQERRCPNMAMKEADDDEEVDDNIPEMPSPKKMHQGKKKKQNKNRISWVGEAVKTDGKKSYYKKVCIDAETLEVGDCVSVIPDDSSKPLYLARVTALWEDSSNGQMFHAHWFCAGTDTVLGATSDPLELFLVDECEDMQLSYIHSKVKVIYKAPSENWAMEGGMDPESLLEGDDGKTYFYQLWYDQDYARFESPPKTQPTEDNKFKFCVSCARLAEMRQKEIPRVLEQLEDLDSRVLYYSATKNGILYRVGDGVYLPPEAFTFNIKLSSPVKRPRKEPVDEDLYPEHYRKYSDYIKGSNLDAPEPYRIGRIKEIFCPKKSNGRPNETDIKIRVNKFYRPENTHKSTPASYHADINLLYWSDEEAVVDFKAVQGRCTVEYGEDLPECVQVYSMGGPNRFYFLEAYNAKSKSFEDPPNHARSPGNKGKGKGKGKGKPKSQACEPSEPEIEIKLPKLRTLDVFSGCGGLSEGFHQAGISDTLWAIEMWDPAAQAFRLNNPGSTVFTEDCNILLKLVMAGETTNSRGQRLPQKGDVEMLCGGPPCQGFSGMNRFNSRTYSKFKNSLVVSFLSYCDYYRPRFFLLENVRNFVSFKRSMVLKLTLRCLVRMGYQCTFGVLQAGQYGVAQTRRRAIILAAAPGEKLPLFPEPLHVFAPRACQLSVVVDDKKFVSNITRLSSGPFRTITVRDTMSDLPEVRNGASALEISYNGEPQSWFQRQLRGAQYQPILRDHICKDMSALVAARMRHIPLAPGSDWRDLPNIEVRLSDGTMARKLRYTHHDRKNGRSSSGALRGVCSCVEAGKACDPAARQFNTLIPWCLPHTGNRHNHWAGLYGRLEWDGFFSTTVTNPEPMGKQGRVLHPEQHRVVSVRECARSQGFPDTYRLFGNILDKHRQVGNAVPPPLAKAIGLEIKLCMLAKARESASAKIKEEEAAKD
# [4] = biological target: T1, Low molecular weight phosphotyrosine protein phosphatase; type: functional; details: read-out: IC50_Mean; remark: listed apart in the source
# [5] = biological target: Arf-GAP with SH3 domain, ANK repeat and PH domain-containing protein 1 (Homo sapiens, UniProt Q9ULH1); type: functional;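 further: biochemical fluorescence polarization dose–response screen measuring inhibition of ASAP1; ASAP1 GAP domain stimulating GTP hydrolysis by truncated human ARF1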
# Beta-galactosidase = Beta-galactosidase (Escherichia coli, UniProt Q8VNN2); assay: PubChem AID 485352; type: functional
# [6] = biological target: T2, Endoribonuclease toxin MazF (Escherichia coli K-12, UniProt P0AE70); assay: fluorescent RNA oligo signal without MazF, dose response, counter-screen for MazEF activator project, biochemical, fluorescence, single-stranded RNase substrate (AID 588502); type: functional
# T2 sequence (P0AE70 whole entry): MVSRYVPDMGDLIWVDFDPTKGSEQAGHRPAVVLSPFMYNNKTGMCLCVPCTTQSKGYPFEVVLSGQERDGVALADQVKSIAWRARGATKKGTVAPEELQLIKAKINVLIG
# [7] = biological target: T3, Type-1 angiotensin II receptor (Homo sapiens, UniProt P30556); assay: AT1 receptor antagonists, dose response, selectivity assay for APJ receptor antagonist project, cell-based, uHTS hits (AID 463214); type: functional;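 further: antagonist potency against angiotensin II stimulated AT1 response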
# T3 sequence (P30556 whole entry): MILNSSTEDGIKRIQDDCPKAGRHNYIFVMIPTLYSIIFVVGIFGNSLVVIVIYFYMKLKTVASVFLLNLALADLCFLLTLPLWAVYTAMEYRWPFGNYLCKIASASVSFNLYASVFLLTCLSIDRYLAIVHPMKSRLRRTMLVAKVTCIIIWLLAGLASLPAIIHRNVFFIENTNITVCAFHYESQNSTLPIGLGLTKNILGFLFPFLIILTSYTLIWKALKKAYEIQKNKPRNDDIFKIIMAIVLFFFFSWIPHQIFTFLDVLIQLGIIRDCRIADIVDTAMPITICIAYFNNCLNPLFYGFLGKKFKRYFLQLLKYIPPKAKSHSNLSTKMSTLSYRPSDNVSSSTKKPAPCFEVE
# [8] = biological target: T4, RNA-binding protein pos-1 (Caenorhabditis elegans, UniProt G5EF15); assay: inhibitors of POS-1/mex-3 RNA binding, dose response, biochemical, fluorescence polarization (AID 1964);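 further: purified POS-1 fused to maltose binding protein made in E. coli; potency of compounds blocking POS-1 binding to fluorescent RNA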
# T4 sequence (G5EF15 whole entry): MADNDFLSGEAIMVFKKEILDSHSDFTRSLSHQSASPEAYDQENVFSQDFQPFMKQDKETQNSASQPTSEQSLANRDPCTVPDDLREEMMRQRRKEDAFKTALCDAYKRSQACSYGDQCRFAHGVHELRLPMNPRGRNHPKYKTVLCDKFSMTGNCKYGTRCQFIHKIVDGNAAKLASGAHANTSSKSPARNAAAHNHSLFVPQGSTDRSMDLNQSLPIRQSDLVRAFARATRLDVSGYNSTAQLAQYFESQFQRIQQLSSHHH
# Hexokinase HKDC1 = biological target: T5, Hexokinase HKDC1 (Homo sapiens, UniProt Q2TB90); assay: HKDC1 hexokinase activators, dose response, biochemical, W721R variant (AID 504730); type: functional
# T5 sequence (Q2TB90 whole entry): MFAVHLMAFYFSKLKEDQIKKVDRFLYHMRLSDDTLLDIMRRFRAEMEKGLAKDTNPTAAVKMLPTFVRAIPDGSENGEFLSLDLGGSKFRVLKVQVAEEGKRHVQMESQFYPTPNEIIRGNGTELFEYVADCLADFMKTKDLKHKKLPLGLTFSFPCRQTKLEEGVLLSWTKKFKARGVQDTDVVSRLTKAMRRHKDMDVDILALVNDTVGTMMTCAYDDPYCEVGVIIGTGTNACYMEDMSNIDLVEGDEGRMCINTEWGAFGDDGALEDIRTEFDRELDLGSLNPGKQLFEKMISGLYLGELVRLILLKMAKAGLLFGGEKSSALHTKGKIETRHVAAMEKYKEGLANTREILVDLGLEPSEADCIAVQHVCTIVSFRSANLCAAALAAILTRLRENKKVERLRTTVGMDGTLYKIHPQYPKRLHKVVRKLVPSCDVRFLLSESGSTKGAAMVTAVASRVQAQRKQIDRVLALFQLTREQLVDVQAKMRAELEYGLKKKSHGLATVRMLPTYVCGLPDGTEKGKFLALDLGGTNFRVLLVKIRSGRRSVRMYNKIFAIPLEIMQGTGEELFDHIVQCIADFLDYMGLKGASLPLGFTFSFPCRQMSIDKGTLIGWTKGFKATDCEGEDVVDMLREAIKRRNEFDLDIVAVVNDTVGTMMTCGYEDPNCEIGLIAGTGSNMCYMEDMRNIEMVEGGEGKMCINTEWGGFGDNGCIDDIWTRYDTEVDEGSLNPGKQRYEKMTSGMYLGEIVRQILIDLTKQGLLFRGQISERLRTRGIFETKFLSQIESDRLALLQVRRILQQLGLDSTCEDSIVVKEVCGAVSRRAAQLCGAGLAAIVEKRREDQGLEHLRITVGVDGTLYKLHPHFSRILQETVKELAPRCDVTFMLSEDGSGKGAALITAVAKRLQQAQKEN
# [9] = biological target: Hepatocyte nuclear factor 4-alpha (Homo sapiens, UniProt P41235); type: functional, cell-based;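 further: biochemical luminescence-based dose-response counterscreen measuring inhibition of HNF4 dimerization, run alongside a screen for blockers of ABHD5–perilipin-5 interaction; split luciferase complementation of HNF4 fusion proteins in cell lysate measuring dimerization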
# Sequence of Hepatocyte nuclear factor 4-alpha (P41235 whole entry, the tested form may be a part): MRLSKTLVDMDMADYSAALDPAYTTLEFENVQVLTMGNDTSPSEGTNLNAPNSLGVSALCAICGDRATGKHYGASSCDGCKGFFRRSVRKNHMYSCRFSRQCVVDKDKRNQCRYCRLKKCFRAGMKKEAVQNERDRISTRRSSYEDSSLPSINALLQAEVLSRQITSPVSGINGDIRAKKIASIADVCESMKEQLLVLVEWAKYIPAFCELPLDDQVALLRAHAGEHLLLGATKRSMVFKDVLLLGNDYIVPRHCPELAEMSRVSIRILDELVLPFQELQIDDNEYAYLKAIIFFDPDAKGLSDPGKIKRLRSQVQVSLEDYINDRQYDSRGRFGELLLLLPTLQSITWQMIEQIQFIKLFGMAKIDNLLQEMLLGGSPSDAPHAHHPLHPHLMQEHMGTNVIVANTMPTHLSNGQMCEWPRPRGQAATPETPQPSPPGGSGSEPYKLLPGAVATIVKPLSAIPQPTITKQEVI
# Hexokinase-1 = biological target: T6, Hexokinase-1 (Homo sapiens, UniProt P19367); assay: hexokinase 1 activators, dose response, selectivity assay for HKDC1 activator project, biochemical (AID 504762); type: functional
# T6 sequence (P19367 whole entry): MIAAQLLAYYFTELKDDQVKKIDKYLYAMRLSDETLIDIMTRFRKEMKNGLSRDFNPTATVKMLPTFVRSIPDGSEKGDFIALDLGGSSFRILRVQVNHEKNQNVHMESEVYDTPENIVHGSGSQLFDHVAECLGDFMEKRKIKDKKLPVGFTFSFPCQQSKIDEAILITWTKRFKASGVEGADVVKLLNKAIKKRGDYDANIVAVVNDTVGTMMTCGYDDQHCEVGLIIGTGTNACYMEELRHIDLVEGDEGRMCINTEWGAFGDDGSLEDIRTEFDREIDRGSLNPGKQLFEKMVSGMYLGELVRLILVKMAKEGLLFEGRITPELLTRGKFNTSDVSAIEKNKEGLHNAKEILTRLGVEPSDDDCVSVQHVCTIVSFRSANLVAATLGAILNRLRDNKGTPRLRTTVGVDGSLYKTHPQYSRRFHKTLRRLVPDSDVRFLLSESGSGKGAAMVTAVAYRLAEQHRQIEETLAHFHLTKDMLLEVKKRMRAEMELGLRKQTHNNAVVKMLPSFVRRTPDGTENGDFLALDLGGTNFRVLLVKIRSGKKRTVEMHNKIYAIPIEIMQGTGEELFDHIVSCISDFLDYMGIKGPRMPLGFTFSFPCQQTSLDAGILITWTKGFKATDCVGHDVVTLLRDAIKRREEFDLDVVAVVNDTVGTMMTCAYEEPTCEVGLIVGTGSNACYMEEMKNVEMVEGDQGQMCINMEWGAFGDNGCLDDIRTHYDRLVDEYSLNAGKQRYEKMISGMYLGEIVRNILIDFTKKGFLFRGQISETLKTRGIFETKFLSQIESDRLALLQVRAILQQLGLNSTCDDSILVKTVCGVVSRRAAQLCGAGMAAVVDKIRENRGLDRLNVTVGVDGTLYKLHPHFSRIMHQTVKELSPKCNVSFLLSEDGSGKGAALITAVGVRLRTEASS
# [10] = biological target: T2, Endoribonuclease toxin MazF; assay: MazF toxin RNase activators, dose response, biochemical, fluorescence, single-stranded RNA substrate, uHTS hits (AID 588481); type: functional
# [11] = biological target: T7, Zinc finger protein mex-5 (Caenorhabditis elegans, UniProt Q9XUB2); assay: MEX-5/TCR-2 RNA interaction inhibitors, dose response, biochemical, C. elegans, fluorescence polarization (AID 1960)
# T7 sequence (Q9XUB2 whole entry): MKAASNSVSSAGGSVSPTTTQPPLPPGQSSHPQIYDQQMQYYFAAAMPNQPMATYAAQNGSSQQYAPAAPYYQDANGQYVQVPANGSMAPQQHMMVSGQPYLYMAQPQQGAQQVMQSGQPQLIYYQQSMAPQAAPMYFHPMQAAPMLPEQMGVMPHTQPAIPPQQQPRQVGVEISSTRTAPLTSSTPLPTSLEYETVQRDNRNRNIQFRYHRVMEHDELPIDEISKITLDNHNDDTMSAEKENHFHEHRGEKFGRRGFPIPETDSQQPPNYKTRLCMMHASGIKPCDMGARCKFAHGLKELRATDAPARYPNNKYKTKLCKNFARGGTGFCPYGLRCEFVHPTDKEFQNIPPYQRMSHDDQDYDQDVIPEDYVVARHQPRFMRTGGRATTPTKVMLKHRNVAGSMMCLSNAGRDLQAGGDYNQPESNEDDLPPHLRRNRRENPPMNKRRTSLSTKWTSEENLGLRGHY
# Vero = assay: cells; type: functional; details: Chlorocebus sabaeus
# [12] = intracellular Trypanosoma cruzi inhibitors in host cells – cell-based, plate reader, cherry-pick samples, set 3, dose response (AID 651818); type: functional;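 further: compounds incubated with infected cells for about four days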
# [13] = NIH/3T3 fibroblast cytotoxicity, dose response, cytotoxicity control for T. cruzi growth inhibitor project, cell-based, cherry-pick samples, set 2 (AID 651817); type: functional; details: NIH3T3
# Beta-lactamase [14] = biological target: T8, Beta-lactamase (Pseudomonas aeruginosa, UniProt Q79MP6); assay: […] counterscreen for selective VIM-2 inhibitors: dose response biochemical high throughput screening assay to identify inhibitors of IMP-1 metallo-beta-lactamase.
# T8 sequence (Q79MP6 whole entry): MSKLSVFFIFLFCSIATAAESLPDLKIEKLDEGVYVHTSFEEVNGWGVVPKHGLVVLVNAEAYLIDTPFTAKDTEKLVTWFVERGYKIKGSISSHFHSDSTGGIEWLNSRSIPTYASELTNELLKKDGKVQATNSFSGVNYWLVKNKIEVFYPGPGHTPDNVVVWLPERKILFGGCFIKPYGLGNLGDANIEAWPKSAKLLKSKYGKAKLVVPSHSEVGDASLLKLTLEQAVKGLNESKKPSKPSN
# Beta-lactamase [15] = biological target: T8, Beta-lactamase; assay: IMP-1 metallo-beta-lactamase inhibitors, dose response, selectivity assay for VIM-2 inhibitor project, biochemical, epi-absorbance (AID 1920)
# Beta-lactamase [16] = biological target: Beta-lactamase (Salmonella choleraesuis (strain SC-B67), UniProt Q5J463); assay: Epi-absorbance-based counterscreen for selective VIM-2 inhibitors: dose response biochemical high throughput screening assay to identify inhibitors of TEM-1 serine-beta-lactamase.
# Sequence of Beta-lactamase (Salmonella choleraesuis (strain SC-B67), UniProt Q5J463) (Q5J463 whole entry): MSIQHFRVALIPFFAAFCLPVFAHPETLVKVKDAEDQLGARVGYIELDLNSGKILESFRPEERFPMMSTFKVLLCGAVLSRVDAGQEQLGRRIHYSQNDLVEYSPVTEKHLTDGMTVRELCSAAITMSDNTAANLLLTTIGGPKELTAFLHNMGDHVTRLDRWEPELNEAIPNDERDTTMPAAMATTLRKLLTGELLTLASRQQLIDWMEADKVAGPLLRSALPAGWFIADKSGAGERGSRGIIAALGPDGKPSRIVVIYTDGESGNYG
# [17] = biological target: Tyrosine-protein phosphatase non-receptor type 5 (Homo sapiens, UniProt P54829); assay: STEP phosphatase inhibitors, confirmation, biochemical, fluorescence intensity, uHTS hits (AID 602372); type: functional; details: read-out: IC50_Mean
# Sequence of Tyrosine-protein phosphatase non-receptor type 5 (P54829 whole entry): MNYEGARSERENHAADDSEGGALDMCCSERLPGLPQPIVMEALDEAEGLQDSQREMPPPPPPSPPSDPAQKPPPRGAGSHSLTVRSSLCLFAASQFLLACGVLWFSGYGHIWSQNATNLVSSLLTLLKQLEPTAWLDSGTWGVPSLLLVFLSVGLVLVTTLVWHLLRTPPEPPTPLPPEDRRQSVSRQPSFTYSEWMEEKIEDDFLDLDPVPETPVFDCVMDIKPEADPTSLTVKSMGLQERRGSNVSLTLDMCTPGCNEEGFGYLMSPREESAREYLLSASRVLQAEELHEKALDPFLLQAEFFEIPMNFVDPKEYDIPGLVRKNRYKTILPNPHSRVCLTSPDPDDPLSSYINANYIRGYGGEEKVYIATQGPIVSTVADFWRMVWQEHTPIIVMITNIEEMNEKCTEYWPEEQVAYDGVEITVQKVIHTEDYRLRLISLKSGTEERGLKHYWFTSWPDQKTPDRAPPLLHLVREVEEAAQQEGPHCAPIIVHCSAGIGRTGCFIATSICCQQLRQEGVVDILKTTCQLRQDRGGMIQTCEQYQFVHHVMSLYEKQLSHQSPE
# [18] = biological target: T9, Tyrosine-protein phosphatase non-receptor type 22 (Homo sapiens, UniProt Q9Y2R2); assay: PTPN22 phosphatase inhibition, dose response, selectivity assay for STEP inhibitor project, biochemical (AID 624241); type: functional
# T9 sequence (Q9Y2R2 whole entry): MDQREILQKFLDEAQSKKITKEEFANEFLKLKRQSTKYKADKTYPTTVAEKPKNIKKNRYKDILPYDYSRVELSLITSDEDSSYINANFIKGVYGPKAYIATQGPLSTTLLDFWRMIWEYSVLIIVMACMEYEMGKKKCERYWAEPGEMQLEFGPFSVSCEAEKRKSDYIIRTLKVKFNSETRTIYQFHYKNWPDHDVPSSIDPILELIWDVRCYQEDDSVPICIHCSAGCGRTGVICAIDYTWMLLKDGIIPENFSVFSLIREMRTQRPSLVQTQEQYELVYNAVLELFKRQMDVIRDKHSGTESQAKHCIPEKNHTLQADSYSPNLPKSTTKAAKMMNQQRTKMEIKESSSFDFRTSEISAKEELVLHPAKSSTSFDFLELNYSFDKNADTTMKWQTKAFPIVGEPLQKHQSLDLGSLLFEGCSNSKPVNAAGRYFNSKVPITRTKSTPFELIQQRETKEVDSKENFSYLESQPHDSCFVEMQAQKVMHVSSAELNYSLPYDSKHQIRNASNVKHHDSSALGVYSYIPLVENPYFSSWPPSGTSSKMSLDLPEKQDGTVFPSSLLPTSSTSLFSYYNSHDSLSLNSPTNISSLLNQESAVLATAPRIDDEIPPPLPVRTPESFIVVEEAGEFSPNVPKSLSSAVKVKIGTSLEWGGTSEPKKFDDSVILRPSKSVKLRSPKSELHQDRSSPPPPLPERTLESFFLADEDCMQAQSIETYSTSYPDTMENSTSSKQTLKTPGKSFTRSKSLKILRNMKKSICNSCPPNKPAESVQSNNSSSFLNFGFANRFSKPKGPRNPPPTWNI
# [19] = biological target: Tyrosine-protein phosphatase non-receptor type 11 (Homo sapiens, UniProt Q06124); assay: SHP2 phosphatase inhibition, dose response, selectivity assay for STEP inhibitor project, biochemical (AID 602367); type: functional; details: read-out: IC50_Mean
# Sequence of Tyrosine-protein phosphatase non-receptor type 11 (Q06124 whole entry): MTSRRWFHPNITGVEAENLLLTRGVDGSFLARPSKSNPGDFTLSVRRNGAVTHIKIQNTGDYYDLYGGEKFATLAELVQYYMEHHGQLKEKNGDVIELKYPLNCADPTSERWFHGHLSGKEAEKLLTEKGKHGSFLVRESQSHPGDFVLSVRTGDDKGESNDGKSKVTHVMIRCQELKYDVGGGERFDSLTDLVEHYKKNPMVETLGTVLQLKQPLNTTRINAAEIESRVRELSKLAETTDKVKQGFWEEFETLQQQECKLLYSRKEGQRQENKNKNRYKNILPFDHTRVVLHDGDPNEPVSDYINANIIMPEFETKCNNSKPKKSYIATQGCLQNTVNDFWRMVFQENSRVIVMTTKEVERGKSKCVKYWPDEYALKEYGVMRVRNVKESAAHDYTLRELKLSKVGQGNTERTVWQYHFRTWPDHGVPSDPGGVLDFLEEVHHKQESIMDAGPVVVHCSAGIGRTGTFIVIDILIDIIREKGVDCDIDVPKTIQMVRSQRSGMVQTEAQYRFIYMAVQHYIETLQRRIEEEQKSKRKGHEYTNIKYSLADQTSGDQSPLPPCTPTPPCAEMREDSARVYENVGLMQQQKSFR
# [20] = biological target: Dual specificity protein phosphatase 3 (Homo sapiens, UniProt P51452); assay: VHR phosphatase inhibition, dose response, selectivity assay for STEP inhibitor project, biochemical (AID 602374); type: functional; details: read-out: IC50_Mean
# Sequence of Dual specificity protein phosphatase 3 (P51452 whole entry): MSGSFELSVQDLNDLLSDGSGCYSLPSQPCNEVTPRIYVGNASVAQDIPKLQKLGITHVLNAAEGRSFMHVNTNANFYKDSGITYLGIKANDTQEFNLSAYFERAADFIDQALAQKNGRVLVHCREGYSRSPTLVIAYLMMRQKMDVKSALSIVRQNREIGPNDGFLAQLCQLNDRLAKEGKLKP
# Sequence of 5-hydroxytryptamine receptor 2A (P35363 whole entry): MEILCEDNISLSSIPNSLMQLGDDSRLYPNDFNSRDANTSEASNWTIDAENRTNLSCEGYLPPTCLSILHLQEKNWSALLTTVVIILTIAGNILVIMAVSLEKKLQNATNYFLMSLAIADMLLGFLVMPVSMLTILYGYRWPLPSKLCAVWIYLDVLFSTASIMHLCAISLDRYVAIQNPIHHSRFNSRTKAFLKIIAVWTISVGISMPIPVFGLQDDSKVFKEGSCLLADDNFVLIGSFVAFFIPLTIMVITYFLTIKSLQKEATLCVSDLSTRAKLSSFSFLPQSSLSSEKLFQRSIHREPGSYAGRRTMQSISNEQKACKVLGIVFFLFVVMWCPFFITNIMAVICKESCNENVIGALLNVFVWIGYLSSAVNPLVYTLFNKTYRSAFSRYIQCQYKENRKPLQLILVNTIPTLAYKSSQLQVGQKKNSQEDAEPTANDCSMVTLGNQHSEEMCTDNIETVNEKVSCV
compound,measurement,setting,value
COc1ccc(C)cc1NC(=O)CCN1CCN(c2ccccc2F)CC1,EC50,[1],76.1 µM (inactive)
same,EC50,Mu-type opioid receptor,92.5 µM (inactive)
Cc1ccc(-c2nn(-c3ccccc3)cc2C=C2SC(=S)N(CCS(=O)(=O)O)C2=O)cc1,IC50,[2],10.4 µM (active)
same,IC50,[3],4.93 µM (active)
same,IC50,[4],> 80 µM (inactive)
O=[N+]([O-])c1ccc(OCCOc2ccccc2/C=N/n2cnnc2)cc1,IC50,[5],22.5 µM (inactive)
CC(=O)C1=C(c2cccc([N+](=O)[O-])c2)N(C(C)=O)n2c(C)nnc2S1,EC50,Beta-galactosidase,15 µM (active)
same,EC50,[6],45.2 µM (inactive)
same,IC50,[7],8.72 µM (active)
same,EC50,[8],44.2 µM (active)
same,EC50,Hexokinase HKDC1,8.32 µM (active)
same,IC50,[9],4.27 µM (active)
same,EC50,Hexokinase-1,6.54 µM (active)
same,EC50,[10],20.5 µM (inactive)
same,EC50,[11],> 300 µM (inconclusive)
same,CC50,Vero,24.4 µM (active)
Cc1ccc(S(=O)(=O)Nc2ccc3c(c2)CC(=O)N([C@@H](C)CO)C[C@H](C)[C@@H](CN(C)Cc2ccc(Cl)c(Cl)c2)O3)cc1,AC50,[12],3.89 µM (active)
same,AC50,[13],8.45 µM (active)
CCN(CC)C(=O)CSc1nc2ccc(NC(=O)CSc3nccn3C)cc2s1,IC50,Beta-lactamase [14],> 59.6 µM (inactive)
same,IC50,Beta-lactamase [15],> 59.6 µM (inactive)
same,IC50,Beta-lactamase [16],> 59.6 µM (inactive)
CCC(CC)c1nnc(NC(=O)c2cc(C(=O)OC)cc([N+](=O)[O-])c2)s1,IC50,[17],8.62 µM (active)
same,IC50,[18],75.6 µM (inactive)
same,IC50,[19],2.28 µM (active)
same,IC50,[20],0.567 µM (active)

# Reference: ChEMBL document CHEMBL1201862, “PubChem BioAssay data set” (2004)
